Holding throughout (type): biochemical
Data set [1] deals with T1, NQO1 (Homo sapiens, UniProt P15559). Briefly: Fluorescent response of NIR-ASM towards NQO1. Details: purchased Sigma-Aldrich D1515. The procedure: Fluorescent response of NIR-ASM towards NQO1. To unequivocally establish that NIR-ASM is a highly specific sensor for NQO1, the inventors first investigated its spectral properties were systematically studied in simulated physiological conditions 0.1% BSA containing PBS, BSA used as a stabilizing agent, pH 7.4) at 37° C., and the results are given in FIGS. 9D and 9E. […] However, upon addition of NQO1, the absorption at 403 nm disappears and a prominent absorption at 465 nm emerges; Along with the bathochromic shift of UV/Vis absorption, a distinct color change from yellow to red was observed after 30 min of incubation with NQO1. […] However, the reaction of the probe with NQO1 produced a strong fluorescence emission band at 646 nm with a large Stokes shift ([…]) (FIG. 9F), which is highly advantageous for bioimaging analysis, because of non-overlapping excitation and emission wavelengths. Next, the fluorescence response of NIR-ASM to NQO1 at varying concentrations (0-2.5 μg/mL) was studied. […] Also, the fluorescence enhancement was directly proportional to the enzyme concentration in the range of 0.125-2.5 μg/mL (R^2=0.9919, FIG. 9G). The NQO1 detection limit (LOD) of NIR-ASM was calculated to be as low as 0.191 μg/mL, based on the standard deviation of the response (Sy) and the slope of the calibration curve (S) according to the formula: LOD=3.3(Sy/S).
T1 sequence (P15559 whole entry): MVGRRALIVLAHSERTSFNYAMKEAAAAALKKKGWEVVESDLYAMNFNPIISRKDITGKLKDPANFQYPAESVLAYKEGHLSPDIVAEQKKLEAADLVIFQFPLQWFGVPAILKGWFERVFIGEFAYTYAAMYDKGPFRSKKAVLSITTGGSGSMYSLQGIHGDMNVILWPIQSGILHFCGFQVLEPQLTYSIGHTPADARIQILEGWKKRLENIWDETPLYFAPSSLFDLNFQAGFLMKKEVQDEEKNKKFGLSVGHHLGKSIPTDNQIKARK
Spectroscopic measurements. NIR-ASM was dissolved with DMSO to prepare a stock solution, which was then diluted with enzyme reaction buffer (PBS containing 2.5 μg/mL, 100 μM NADH and 0.1% BSA) to prepare different concentrations of the probe for UV/Vis and fluorescence measurement. Time-dependent fluorescence intensity changes for different concentrations of NIR-ASM in the presence of NQO1 (2.5 μg/mL) and 100 μM NADH were measured using Clear bottom 96 well black plate and microplate reader. Fluorescence (ex. 460 nm and em. 646 nm) was quantitated every minute for 90 min with 20 seconds of shaking in between intervals.

The target of data set [2] is T1, NQO1. Briefly: Kinetics of NQO1 towards NIR-ASM (Michaelis-Menten). The note with it: NQO1 2 μg/mL, NADH 100 μM. Details: purchased Sigma-Aldrich D1515. Here is the method: Next, the kinetics of fluorescent product formation was assessed. […] From this experiment, the initial rate of ASM formation, V (μmol min^−1 μg NQO1^−1), was calculated and then plotted as a function of NIR-ASM concentration (FIG. 10C).
Kinetic studies. Kinetic studies were performed using a microplate reader under philological conditions (PBS with 0.1% of BSA at 37° C.). The assay buffer contained 2 μg/mL of NQO1, 100 μM NADH and different concentrations of NIR-ASM (0-100 μM) in a total volume of 100 μL. Time-dependent fluorescence measurements were carried out to monitor the release of ASM by NQO1 activation of NIR-ASM (λex/em 460/646), and the data were collected every minute for 90 minutes. This assay was repeated two times in triplicate and the fluorescence readings were optimized to a standard curve of ASM of known concentration and calculated the velocity in terms of μmol^−1 min^−1 μg NQO1. A plot of the velocities and NIR-ASM concentration was used to obtaining the apparent kinetic parameters Km and Vmax from nonlinear regression analysis and Michaelis-Menton constant using the GraphPad Prism.

Data set [3] concerns the target T1, NQO1. Briefly: Spectroscopic response of NQ-DCP to hNQO1. The procedure: Spectroscopic Response of NQ-DCP to hNQO1. The spectroscopic response of the NQ-DCP probe to an hNQO1 enzyme in the presence of NADH was evaluated in a physiologically relevant buffer (0.1% BSA and 100 μM NADH containing PBS) to determine its ability to detect hNQO1. The absorption and fluorescence spectra of NQ-DCP in the absence and presence of hNQO1 are shown in FIGS. 2A and B. In the presence of hNQO1, although there was a distinct color change from yellow to red there was no difference found in the absorption maximum (425 nm) of NQ-DCP ([…]). Further, the reaction of NQ-DCP probe with hNQO1 produced a huge fluorescence enhancement at 565 nm with a large Stokes shift (140 nm) (FIG. 2B), which is favorable for sensitive detection and bioimaging analysis, because of a non-overlapping fluorescence emission. […] The inventors measured the fluorescence spectra of NQ-DCP (10 μm) following incubation with different concentrations of hNQO1 (0.12, 0.25, 0.5, 1.0, 1.5, 2.0, and 2.5 μg/mL (0.0038, 0.008, 0.016, 0.032, 0.048, 0.064, 0.08 μmol)) along with 100 μM NADH at pH 7.4 for 30 min. […] On incubation with hNQO1, the fluorescence intensity at 565 nm increased progressively with the NQO1 concentration and reached a maximum when the hNQO1 concentration was 2.5 μg/mL. The fluorescence intensity at 565 nm was linear with hNQO1 concentration, 0.25-2.0 μg/mL (FIG. 2D). The hNQO1 detection limit (LOD) of NQ-DCP was calculated to be as low as 0.095 μg/mL, based on the standard deviation of the response (Sy) and the slope of the calibration curve (S) according to the formula: LOD=3.3(Sy/S).
Spectroscopic Methods. For absorption and fluorescence measurements, all samples were first dissolved in 100% DMSO to obtain 10 mM stock solutions and then diluted to desired concentrations in PBS buffer containing 0.1% BSA for measurement. All spectroscopic measurements were performed under physiological conditions (pH 7.4 at room temperature. hNQO1 specific NQ-DCP activation was performed under philological conditions (PBS with 0.1% of BSA at 37° C.) in the presence of 100 μM NADH for 30 min. Time-dependent fluorescent intensity changes for different concentrations of […] in the presence of NQO1 (2.0 μg/mL) and 100 μM NADH were measured using Hitachi F-2500 Fluorescence spectrophotometer (λex=420 nm and λem=565 nm).

The results in this text go back to patent US11957766B2, “HNQO1-activatable fluorescent probe for imaging cancer cells in-vitro and in-vivo” (Texas Tech University System, priority 2019, dated 2024).

Several values for one entry are separate records, joined by “and”; a condition that tells them apart may be missing. Equal values may be shown once.

Regarding `CC1=C(C)C(=O)C(C(C)(C)CC(=O)Nc2ccc(/C=C/C3=CC(=C(C#N)C#N)CC(C)(C)C3)cc2)=C(C)C1=O` [NIR-ASM, (E)-N-(4-(2-(3-(dicyanomethylene)-5,5-dimethylcyclohex-1-en-1-yl)vinyl)phenyl)-3-methyl-3-(2,4,5-trimethyl-3,6-dioxocyclohexa-1,4-dien-1-yl)butanamide], on NQO1 [1] (100 μM NADH), the “enzyme concentration range in which fluorescence enhancement was directly proportional” value is 0.125 to 2.5 µg/mL. Moreover, the “NQO1 detection limit (LOD)” value on NQO1 [1] (LOD=3.3(Sy/S)) was 0.191 µg/mL. Further, on NQO1 [1] (NQO1 2.5 μg/mL), the “time to maximum emission at 646 nm” value is given as 30 min. For the same molecule, on NQO1 [1] (after reaction with NQO1), the Stokes shift came to 186 nm and the fluorescence emission band is reported as 646 nm. The molecule also had an absorption band at NQO1 [1] (before addition of NQO1, PBS 0.1% BSA pH 7.4, 37° C.) of 403 nm. Also, at NQO1 [1] (upon addition of NQO1), the absorption came to 465 nm. Further, on NQO1 [2], the “maximum velocity (Vmax)” value is reported as 0.00419±0.00003 μmol min^−1 mg NQO1^−1.
`CC1=C(C)C(=O)C(C(C)(C)CC(=O)Oc2ccc(/C=C/C3=CC(=C(C#N)C#N)CC(C)(C)C3)cc2)=C(C)C1=O` [NQ-DCP]: on NQO1 [3], the Stokes-Shift turned out to be 145 and the λabs/em is given as 420/465. Moreover, the “hNQO1 concentration range in which fluorescence intensity at 565 nm was linear” value at NQO1 [3] (10 μM probe, 100 μM NADH, 30 min) was 0.25 to 2.0 µg/mL. Also, the “hNQO1 detection limit (LOD)” value at NQO1 [3] (10 μM probe, 100 μM NADH, pH 7.4, 30 min, LOD=3.3(Sy/S)) was 0.095 µg/mL. Moreover, on NQO1 [3] (PBS with 0.1% BSA, 100 μM NADH, pH 7.4, 30 min, no hNQO1), the “stability in the absence of hNQO1” value is on record as “highly stable”. Moreover, at NQO1 [3] (after reaction with hNQO1), the Stokes shift is 145 nm and 140 nm; the “fluorescence enhancement (emission wavelength)” value stood at 565 nm. The absorption maximum at NQO1 [3] (no difference in the presence of hNQO1) is recorded as 425 nm.
